# Reference: article PMC7321065, “Discovery of New Schiff Bases Tethered Pyrazole Moiety: Design, Synthesis, Biological Evaluation, and Molecular Docking Study as Dual Targeting DHFR/DNA Gyrase Inhibitors with Immunomodulatory Activity” (Molecules, 2020)
# Where two headings read alike, the source gives them in different places.
# Tests used:
# Salmonella typhi [1] = assay: MIC/MBC, paper disk diffusion; assay type: cell-based; settings: Salmonella enterica, S. typhi
# Procedure: (§1) Antimicrobial activities of the newly formed Schiff bases (6a–d, 7a–d, 8a–d, and 9a–d) and reference drugs were evaluated against three Gram-positive, three Gram-negative, and two fungi strain at Al-Azhar University, Cairo, Egypt. The inhibition zones (IZ, in mm ± standard deviation) and the minimal inhibitory concentration (MIC) (μg/mL) were determined by the conventional paper disk diffusion method.
# (§2) In Vitro Antimicrobial Activities […]
# (§3) DMSO was used for dissolving […]
# (§4) the tested microorganisms.
# (§5) The minimum inhibitory concentration (MIC), the minimum bactericidal concentration (MBC, µg/ml) and […]
# (§6) and 9b) were determined by the conventional technique termed paper disk diffusion, by applying paper […]
# (§7) Bacteria were grown on nutrient agar medium, while fungi and yeast were grown on Sabouraud agar medium. The purified streptomycin was dissolved in […]
# (§8) inoculated with test organism. Growth inhibition was examined after 24 hr. from incubation at 37 °C for bacteria and after 72 hr. incubation at 27 °C for fungi and yeast. Each test was repeated three times. MIC was expressed as the lowest concentration inhibiting test organism’s growth. […]
# Escherichia coli [2] = assay: MIC/MBC, paper disk diffusion; assay type: cell-based; settings: Escherichia coli
# Procedure: as §1, §2, §3, §4, §5, §6, §7, §8
# Bacillus subtilis [3] = assay: MIC/MBC, paper disk diffusion; assay type: cell-based
# Procedure: as §1, §2, §3, §4, §5, §6, §7, §8
# Enterococcus faecalis [4] = assay: MIC/MBC, paper disk diffusion; assay type: cell-based
# Procedure: as §1, §2, §3, §4, §5, §6, §7, §8
# Pseudomonas aeruginosa [5] = assay: MIC/MBC, paper disk diffusion; assay type: cell-based; settings: for MBC: P. aeruginosa
# Procedure: as §1, §2, §3, §4, §5, §6, §7, §8
# Staphylococcus aureus [6] = assay: MIC/MBC, paper disk diffusion; assay type: cell-based; settings: Staphylococcus aureus
# Procedure: as §1, §2, §3, §4, §5, §6, §7, §8
# [7] = system: P. aeruginosa ATCC BAA-2111; assay: MIC/MBC against MDRB, paper disk diffusion; assay type: cell-based; settings: Pseudomonas aeruginosa, ATCCBAA2111
# Description: (§9) The inhibition zone (IZ, mm±standard deviation) of pyrazole Schiff bases ( 6b, 7b, 7c, 8a, 8d and 9b) was
# (§10) measurement according to the agar plate diffusion method against a panel of multidrug-resistant bacteria
# (MDRB). […]
# E. coli ATCC BAA-196 [8] = assay: MIC/MBC against MDRB, paper disk diffusion; assay type: cell-based; settings: Escherichia coli, ATCCBAA196
# Description: as §9, §10
# (MDRB). […]
# [9] = system: S. aureus ATCC 43300 (MRSA); assay: MIC/MBC against MDRB, paper disk diffusion; assay type: cell-based; settings: Staphylococcus aureus
# Description: as §9, §10
# (MDRB). […]
# S. aureus ATCC 33591 [10] = assay: MIC/MBC against MDRB, paper disk diffusion; assay type: cell-based; settings: Staphylococcus aureus, ATCC33591
# Description: as §9, §10
# (MDRB). […]
# [11] = system: P. aeruginosa ATCC BAA-2111; assay: Inhibition zone against MDRB, agar plate diffusion; assay type: cell-based
# Candida albicans [12] = assay: MIC/MFC, paper disk diffusion; assay type: cell-based; settings: Candida albicans
# Procedure: as §1, §2, §3, §4, §5, §6, §7, §8
# Fusarium oxysporum [13] = assay: MIC/MFC, paper disk diffusion; assay type: cell-based; settings: Fusarium oxysporum
# Procedure: as §1, §2, §3, §4, §5, §6, §7, §8
# Salmonella typhi [14] = assay: Inhibition zone, agar plate diffusion; assay type: cell-based; settings: Salmonella enterica, St, mm ± standard deviation, sample at 0.5 mg/mL, read-out: Inhibition zone (IZ)
# Procedure: as §1
# (§11) In Vitro Antimicrobial Activities
# (§12) The antimicrobial activities inhibition zone (IZ, mm±standard deviation) of pyrazole Schiff bases ( 6a-d , 7a-d, 8a-d and 9a-d ) was measurement according to the agar plate diffusion method. Briefly, 100 µl of the […]
# (§13) […] of each sample (at 0.5 mg/mL) was added to each well (10 mm diameter holes cut in the agar gel). The plates were incubated for 24 h at 37 °C (for bacteria and yeast) and for 72 h at 27 °C (for filamentous fungi), each test was repeated three times. After incubation, the microorganism's growth was observed. […]
# (§14) drugs while Amphotericin B was used as standard antifungal drug. The resulting inhibition zone diameters were measured in millimeters and used as criterion for the antimicrobial activity. Solvent controls (DMSO) were included in every experiment as negative controls. DMSO was used for dissolving […]
# (§15) the tested microorganisms. […]
# (§16) Bacteria were grown on nutrient agar medium, while fungi and yeast were grown on Sabouraud agar medium. […]
# Candida albicans [15] = assay: Inhibition zone, agar plate diffusion; assay type: cell-based; settings: read-out: Inhibition zone (IZ)
# Procedure: as §1, §11, §12, §13, §14, §15, §16
# Staphylococcus aureus [16] = assay: Inhibition zone, agar plate diffusion; assay type: cell-based; settings: read-out: Inhibition zone (IZ)
# Procedure: as §1, §11, §12, §13, §14, §15, §16
# Fusarium oxysporum [17] = assay: Inhibition zone, agar plate diffusion; assay type: cell-based; settings: read-out: Inhibition zone (IZ)
# Procedure: as §1, §11, §12, §13, §14, §15, §16
# S. aureus ATCC 33591 [18] = assay: Inhibition zone against MDRB, agar plate diffusion; assay type: cell-based
# E. coli ATCC BAA-196 [19] = assay: Inhibition zone against MDRB, agar plate diffusion; assay type: cell-based
# [20] = system: mammary gland breast cancer cell line (MCF-7); assay: Antiproliferative activity, MTT assay; assay type: cell-based, human; settings: Homo sapiens, MCF7, 48 h, read-out: IC50 MCF-7
# Procedure: (§17) 3-[4, 5-Dimethyl-2-thiazolyl)-2, 5-diphenyl-2 H-tetrazolium bromide (MTT) protocol is based on the cleavage of the tetrazolium salt by mitochondrial dehydrogenases in viable cells. Cells were dispensed in a 96 well sterile microplate (5 x 10^4 cells/well), and incubated at 37 °C with series of different concentrations, in DMSO, of each tested compound or Doxorubicin ® (positive control) for 48 h in a serum free medium prior to the MTT assay. After incubation, media were carefully removed, 40 µL of MTT (2.5 mg/mL) were added to each well and then incubated for an additional 4 h. The purple formazan dye crystals were solubilized by the addition of 200 µL of DMSO. The absorbance was measured at 590 nm using a SpectraMax® Paradigm® Multi-Mode microplate reader. The relative cell viability was expressed as the mean percentage of viable cells compared to the untreated control cells.
# (§18) All experiments were conducted in triplicate and repeated in three different days. All the values were represented as mean ± SD. IC 50s were determined by probit analysis using SPSS software program (SPSS
# [21] = system: hepatocellular carcinoma cell line (HepG2); assay: Antiproliferative activity, MTT assay; assay type: cell-based, human; settings: Homo sapiens, HepG2, 48 h, read-out: IC50 HepG-2
# Procedure: as §17, §18
# Vero cells (ATCC CCL-81) = assay: Cytotoxicity on normal cells, MTT assay; assay type: cell-based, African green monkey; settings: healthy non-cancer cells
# Procedure: as §17, §18
# Escherichia coli [22] = assay: Inhibition zone, agar plate diffusion; assay type: cell-based; settings: read-out: Inhibition zone (IZ)
# Procedure: as §1, §11, §12, §13, §14, §15
# Bacillus subtilis [23] = assay: Inhibition zone, agar plate diffusion; assay type: cell-based; settings: read-out: Inhibition zone (IZ)
# Procedure: as §1, §11, §12, §13, §14, §15
# Enterococcus faecalis [24] = assay: Inhibition zone, agar plate diffusion; assay type: cell-based; settings: read-out: Inhibition zone (IZ)
# Procedure: as §1, §11, §12, §13, §14, §15
# Pseudomonas aeruginosa [25] = assay: Inhibition zone, agar plate diffusion; assay type: cell-based; settings: read-out: Inhibition zone (IZ)
# Procedure: as §1, §11, §12, §13, §14, §15
# [26] = system: S. aureus ATCC 43300 (MRSA); assay: Inhibition zone against MDRB, agar plate diffusion; assay type: cell-based
# [27] = Ca, mm ± standard deviation, sample at 0.5 mg/mL
# [28] = Sa, mm ± standard deviation, sample at 0.5 mg/mL
# [29] = Fo, mm ± standard deviation, sample at 0.5 mg/mL
# [30] = Ec, mm ± standard deviation, sample at 0.5 mg/mL
# [31] = Bs, mm ± standard deviation, sample at 0.5 mg/mL
# [32] = Ef, mm ± standard deviation, sample at 0.5 mg/mL
# [33] = Pa, mm ± standard deviation, sample at 0.5 mg/mL
structure (smiles),measurement,setting,value
"COc1ccc(Nc2n[nH]c(N=Cc3c(C)nn(-c4ccccc4)c3Cl)c2C(=O)Nc2ccc(C)cc2)cc1 [7c, 5-((5-Chloro-3-methyl-1-phenyl-1H-pyrazol-4-yl)methyleneamino)-3-(p-methoxyphenylamino)-N-p-tolyl-1H-pyrazole-4-carboxamide]",MIC,Salmonella typhi [1],31.2 µg/mL
same,MBC,Salmonella typhi [1]; read-out: MBC,56.2 µg/mL
same,MIC,Escherichia coli [2],18.5 µg/mL
same,Fold more potent than Tetracycline (MIC),Bacillus subtilis [3]; B. subtilis,3 fold
same,MBC,Bacillus subtilis [3]; B. subtilis,18.5 µg/mL
same,MIC,Bacillus subtilis [3]; Bacillus subtilis,9.25 µg/mL
same,MBC,"Bacillus subtilis [3]; Bacillus subtilis, B. subtilis",10.6 µg/mL
same,MIC,Enterococcus faecalis [4],7.81 µg/mL
same,MBC,Pseudomonas aeruginosa [5],88.8 µg/mL
same,MIC,Pseudomonas aeruginosa [5]; Pseudomonas aeruginosa,55.5 µg/mL
same,MBC,Pseudomonas aeruginosa [5]; Pseudomonas aeruginosa,59.4 µg/mL
same,MIC,Staphylococcus aureus [6],31.2 µg/mL
same,MBC,[7],6.66 µg/mL
same,MIC,[7],4.44 µg/mL
same,MBC,E. coli ATCC BAA-196 [8],14.8 µg/mL
same,MIC,E. coli ATCC BAA-196 [8],7.81 µg/mL
same,MBC,[9],14.8 µg/mL
same,MIC,[9],7.81 µg/mL
same,MBC,S. aureus ATCC 33591 [10],11.1 µg/mL
same,MIC,S. aureus ATCC 33591 [10],5.55 µg/mL
same,Mean Diameter of Inhibition Zone against MDRB,[11],22 ± 0.5 mm
same,MFC,Candida albicans [12],41.6 µg/mL
same,MIC,Candida albicans [12],31.2 µg/mL
same,MFC,Fusarium oxysporum [13],87.5 µg/mL
same,MIC,Fusarium oxysporum [13],55.5 µg/mL
same,zone of inhibition at 500 µg/mL,Salmonella typhi [14],29 ± 0.2 mm
same,zone of inhibition at 500 µg/mL,Candida albicans [15],27 ± 0.5 mm
same,zone of inhibition at 500 µg/mL,Staphylococcus aureus [16],33 ± 0.53 mm
same,zone of inhibition at 500 µg/mL,Fusarium oxysporum [17],22 ± 0.11 mm
same,Mean Diameter of Inhibition Zone against MDRB,S. aureus ATCC 33591 [18],21 ± 0.19 mm
same,Mean Diameter of Inhibition Zone against MDRB,E. coli ATCC BAA-196 [19],21 ± 0.3 mm
same,IC50,[20],3.24 ± 0.41 µM
same,IC50,[21],1220 ± 230 nM
same,IC50,"Vero cells (ATCC CCL-81); Chlorocebus sabaeus, Vero, read-out: IC50 Vero, MTT",> 120 µM
same,IC50,"Vero cells (ATCC CCL-81); read-out: IC50 Vero, MTT",213.5 ± 0.57 µM
same,zone of inhibition at 500 µg/mL,Escherichia coli [22],30 ± 0.29 mm
same,zone of inhibition at 500 µg/mL,Bacillus subtilis [23],32 ± 0.22 mm
same,zone of inhibition at 500 µg/mL,Enterococcus faecalis [24],29 ± 0.17 mm
same,zone of inhibition at 500 µg/mL,Pseudomonas aeruginosa [25],27 ± 0.73 mm
same,Mean Diameter of Inhibition Zone against MDRB,[26],17 ± 0.37 mm
"COc1ccc(Nc2n[nH]c(N=Cc3c(C)n(C)n(-c4ccccc4)c3=O)c2C(N)=O)cc1 [6a, 5-((1,5-Dimethyl-3-oxo-2-phenyl-2,3-dihydro-1H-pyrazol-4-yl)methyleneamino)-3-(p-methoxyphenylamino)-1H-pyrazole-4-carboxamide]",melting point,,274 to 276 °C
same,zone of inhibition at 500 µg/mL,Salmonella typhi [14],18 ± 0.16 mm
same,zone of inhibition at 500 µg/mL,Candida albicans [15]; [27],22 ± 0.35 mm
same,zone of inhibition at 500 µg/mL,Staphylococcus aureus [16]; [28],25 ± 0.31 mm
same,zone of inhibition at 500 µg/mL,Fusarium oxysporum [17]; [29],13 ± 0.3 mm
same,zone of inhibition at 500 µg/mL,Escherichia coli [22]; [30],24 ± 0.2 mm
same,zone of inhibition at 500 µg/mL,Bacillus subtilis [23]; [31],21 ± 0.4 mm
same,zone of inhibition at 500 µg/mL,Enterococcus faecalis [24]; [32],21 ± 0.11 mm
same,zone of inhibition at 500 µg/mL,Pseudomonas aeruginosa [25]; [33],20 ± 0.15 mm
"COc1ccc(Nc2n[nH]c(N=Cc3cc(OC)c(OC)c(OC)c3)c2C(=O)Nc2ccc(C)cc2)cc1 [9c, 3-(p-Methoxyphenylamino)-N-p-tolyl-5-(3,4,5-trimethoxybenzylideneamino)-1H-pyrazole-4-carboxamide]",melting point,,234 to 236 °C
same,zone of inhibition at 500 µg/mL,Salmonella typhi [14],23 ± 0.33 mm
same,zone of inhibition at 500 µg/mL,Candida albicans [15]; [27],21 ± 0.5 mm
same,zone of inhibition at 500 µg/mL,Staphylococcus aureus [16]; [28],22 ± 0.34 mm
same,zone of inhibition at 500 µg/mL,Fusarium oxysporum [17]; [29],19 ± 0.28 mm
same,zone of inhibition at 500 µg/mL,Escherichia coli [22]; [30],23 ± 0.44 mm
same,zone of inhibition at 500 µg/mL,Bacillus subtilis [23]; [31],22 ± 0.18 mm
same,zone of inhibition at 500 µg/mL,Enterococcus faecalis [24]; [32],21 ± 0.72 mm
same,zone of inhibition at 500 µg/mL,Pseudomonas aeruginosa [25]; [33],< 8 mm
